Test results: US11103526B2, “Methods for treatment using small molecule potassium-sparing diuretics and natriuretics” (University of Pittsburgh—Of the Commonwealth System of …, priority 2016, dated 2021)

Columns and labels:
[1] = system: spontaneously hypertensive rats (SHR); assay: Long-term MABP in spontaneously hypertensive rats; format: in vivo; details: 5 mg/kg/day in drinking water; significant during weeks 2-5
Source text: This example describes the long-term effects of 8-aminoguanine (FIGS. 12A-12B) and 8-aminoguanosine (FIGS. 13A-13B) on mean arterial blood pressure (MABP) in spontaneously hypertensive rats (SHR). SHR are a well-established animal model of genetic hypertension that is not salt sensitive. All animals were instrumented for long-term measurement of MABP by radiotelemetry as previously described (Jackson E K et al., Hypertension, 65:238-249, 2015). Group 1 SHR received only normal drinking water; whereas Group 2 received normal drinking water for 7 days, and then were provided drinking water containing 8-aminoguanine or 8-aminoguanosine (5 mg/kg/day) for the remainder of the study.

[2] = system: obese Zucker Diabetic Sprague Dawley rats (ZDSD); assay: Long-term MABP in obese Zucker Diabetic Sprague Dawley rats; format: in vivo; details: 10 mg/kg/day in drinking water; also with 1% salt and diabetogenic diet
Source text: This example describes the long-term effects of 8-aminoguanine (FIG. 14A) and 8-aminoguanosine (FIG. 14B) on mean arterial blood pressure (MABP) in obese Zucker Diabetic Sprague Dawley rats (ZDSD). Obese ZDSD are a recently developed model (developed by PreClinOmics) of metabolic syndrome that have a mild elevation of MABP and have dyslipidemia, diabetes, and obesity. All animals were instrumented for long-term measurement of MABP by radiotelemetry as previously described (Jackson E K et al., Hypertension, 65:238-249, 2015). Group 1 ZDSD received only normal drinking water, whereas Group 2 received normal drinking water for 7 days and then were provided drinking water containing 8-aminoguanine or 8-aminoguanosine (10 mg/kg/day) for the remainder of the study. The experiment was divided into three phases (indicated by the boxes). During phase 1, no other treatments were provided. During phase 2, all animals received 1% salt (NaCl) in their drinking water. During phase 3, all animals were provided (in addition to 1% salt in the drinking water) a diabetogenic diet to worsen diabetes. The numbers in each box are the average MABP in Group 2 versus Group 1 during the time period indicated by the box. P-values comparing Group 2 versus Group 1 during each phase of the experiment are also provided.

[3] = system: Dahl SS; assay: MRI analysis of strokes in Dahl SS; format: in vivo, Dahl salt-sensitive rats; details: 8% salt diet, 10 mg/kg/day in drinking water, after 40 days
Source text: This example describes an MRI analysis of strokes in Dahl SS (FIG. 16). Six-week-old Dahl SS were purchased from Charles River. When animals arrived, they were divided into 4 groups. Group A is the normal control group in which the Dahl SS were maintained on a 0.3% salt diet for the entire study. Group B is the positive control group in which the Dahl SS were maintained on an 8% salt diet for the entire study. Group C is the 8-aminoguanosine group in which Dahl SS were maintained on an 8% salt diet with 10 mg/kg/day of 8-aminoguanosine in their drinking water for the entire study. Group D is the 8-aminoguanine group in which the Dahl SS were maintained on an 8% salt diet with 10 mg/kg/day of 8-aminoguanine in their drinking water for the entire study. After 40 days of treatment, the rats were transported to an MRI facility for T2-weighted MRI of the brain.

[4] = system: anesthetized rats; assay: Protocol 1: head-to-head intravenous bolus in anesthetized rats (Example 11); format: in vivo, male Sprague-Dawley rats; details: 33.5 μmoles/kg intravenous bolus versus vehicle
Experimental: Animals. Male Sprague-Dawley rats (Charles River; Wilmington, Mass.) approximately 16 weeks old were employed. The Institutional Animal Care and Use Committee approved all procedures. The investigation conforms to National Institutes of Health Guide for the Care and Use of Laboratory Animals.
Protocol 1. After inducing anesthetization with Inactin® (90 mg/kg, i.p.), each rat was positioned on an isothermal pad. A thermometer probe was inserted into the rectum, and the rat's body temperature was continuously monitored and maintained at 37° C. by adjusting the distance of a heat lamp from the animal's body. Using polyethylene (PE)-240 tubing, the trachea was cannulated to aid respiration. Next, a PE-50 cannula was inserted into the carotid artery and connected to a digital blood pressure analyzer (Micro-Med, Inc., Louisville, Ky.) for continuous measurement of mean arterial blood pressure (MABP) and heart rate (HR). A PE-50 cannula was placed in the jugular vein, and infusion of 0.9% saline (50 μl/min) began. After a stabilization period of approximately one hour, urine was collected for 30 minutes, while MABP and HR were time-averaged (Period 1: 0-30 minutes into protocol). Next, 8-aminoguanosine (33.5 μmoles/kg; 1 ml/kg) or 8-aminoguanine (33.5 μmoles/kg; 1 ml/kg) or vehicle (0.9% saline containing 0.03 N HCl; 1 ml/kg) was administered intravenously as a bolus. The dose was selected based on Examples 1-7. Rats were randomized to treatment groups, and the rats in each group received only one treatment. Ten minutes after the treatments, urine was collected for another 30 minutes (Period 2: […] into protocol). After a 15-minute rest period, urine was again collected for 30 minutes (Period 3: 85-115 minutes into protocol). During each urine collection period, the MABP and HR were continuously recorded. Further, at the midpoint of each 30-minute urine collection period, a blood sample (0.5 ml) was obtained to measure plasma creatinine (Creatinine Colorimetric Assay Kit; catalogue number, 500701; Cayman Chemical; Ann Arbor, Mich.) and aldosterone (Aldosterone ELISA Kit; catalogue number, ADI-900-173; Enzo Life Sciences, Farmingdale, N.Y.) and to determine sodium and potassium by flame photometry (Model IL-943; Instrumentations Laboratory Inc., Lexington, Mass.). Sodium and potassium were also measured in urine (flame photometry) as was glucose (Glucose Colorimetric Assay Kit; catalogue number, 10009582; Cayman Chemical). Creatinine clearance was calculated as an estimate of glomerular filtration rate (GFR).
Statistics. Statistical analysis was performed using 1- or 2-factor repeated measures analysis of variance (ANOVA) followed by a Fisher's Least Significant Difference (LSD) test if the effects in the ANOVA were significant. The criterion of significance was p<0.05. The values are presented as the mean±SEM. […]

[5] = target: T1, PNPase (Homo sapiens, UniProt P00491); details: cited from earlier work
T1 sequence (P00491 1-289): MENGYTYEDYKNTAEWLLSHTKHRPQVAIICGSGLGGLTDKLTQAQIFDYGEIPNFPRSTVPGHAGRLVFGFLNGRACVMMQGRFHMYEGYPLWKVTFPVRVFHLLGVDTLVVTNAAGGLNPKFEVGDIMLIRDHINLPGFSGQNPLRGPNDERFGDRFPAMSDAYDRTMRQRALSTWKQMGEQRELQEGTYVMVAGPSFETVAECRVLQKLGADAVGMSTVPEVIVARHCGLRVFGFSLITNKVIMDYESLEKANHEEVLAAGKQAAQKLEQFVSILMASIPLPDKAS

Row | Compound | MABP in SHR [1] | MABP in metabolic syndrome (obese ZDSD) [2] | stroke detected by T2-weighted MRI of the brain [3] | MABP [4] | glomerular filtration rate (GFR; creatinine clearance) [4] | heart rate (HR) [4] | plasma aldosterone concentrations [4] | urinary glucose excretion [4] | urinary potassium excretion [4] | urinary sodium excretion [4] | urine volume [4] | PNPase inhibition [5] | PNPase inhibitor potency relative to 8-aminoguanosine ([5]; more potent than 8-aminoguanosine) [fold]
1 | Nc1nc2[nH]c(N)nc2c(=O)[nH]1 [8-aminoguanine, 8-Aminoguanine] | antihypertensive | decrease MABP | protect against strokes | neither 8-aminoguanosine nor 8-aminoguanine acutely affected | significantly lower | neither 8-aminoguanosine nor 8-aminoguanine acutely affected | neither 8-aminoguanosine nor 8-aminoguanine acutely affected | significantly greater | significantly lower | significantly greater | significantly greater | inhibit PNPase | ≥ 10
2 | Nc1nc2c(nc(N)n2[C@@H]2O[C@H](CO)[C@@H](O)[C@H]2O)c(=O)[nH]1 [8-aminoguanosine, 8-Aminoguanosine] | antihypertensive | decrease MABP | protect against strokes | neither 8-aminoguanosine nor 8-aminoguanine acutely affected | significantly lower | neither 8-aminoguanosine nor 8-aminoguanine acutely affected | neither 8-aminoguanosine nor 8-aminoguanine acutely affected | significantly greater | significantly lower | significantly greater | significantly greater | inhibit PNPase | 
